Source: article PMC9219689, “The Antioxidant Cyclic 3-Hydroxymelatonin Promotes the Growth and Flowering of Arabidopsis thaliana” (Antioxidants, 2022)
Blank lines part the entries; values can stand above or below the molecule they belong to.

Tests used:
[1] = target: T1, AtM3H (Arabidopsis thaliana melatonin 3-hydroxylase) (Arabidopsis thaliana, UniProt Q39224); test: HPLC with fluorescence detection of 3-OHM; inhibition of M3H activity; format: biochemical
T1 construct: gene SRG1; full length, 358 residues; N-terminal hexahistidine tag (pET300), removal not mentioned; E. coli BL21(DE3), Ni-NTA purified
T1 sequence (Q39224 1-358): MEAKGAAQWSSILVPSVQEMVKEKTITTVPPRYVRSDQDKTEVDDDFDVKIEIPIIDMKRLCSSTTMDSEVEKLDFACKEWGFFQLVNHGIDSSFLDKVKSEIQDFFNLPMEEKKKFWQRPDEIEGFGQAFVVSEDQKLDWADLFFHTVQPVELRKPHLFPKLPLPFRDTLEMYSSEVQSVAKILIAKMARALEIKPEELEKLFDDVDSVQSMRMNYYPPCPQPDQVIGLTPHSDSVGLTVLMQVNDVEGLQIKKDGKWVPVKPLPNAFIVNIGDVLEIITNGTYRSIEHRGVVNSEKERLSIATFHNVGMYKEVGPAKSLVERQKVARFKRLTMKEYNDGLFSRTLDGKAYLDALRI

purified protein = substrate: COc1ccc2[nH]cc(CCNC(C)=O)c2c1; test: purified protein; settings: co-substrate α-ketoglutarate (160 µM in standard assay), FeSO4 100 µM, ascorbate 1 mM, catalase, optimum conditions (pH 7.3, 30 °C; Methods list Tris/HCl pH 8.0)

inhibition at 500 µM [1]: 50%
Molecule: CCC(=O)C1C(=O)CC(C(=O)O)CC1=O (centres unmarked) [Prohexadione-Ca]

B1: AtM3H (Arabidopsis thaliana melatonin 3-hydroxylase) (Arabidopsis thaliana) (protein)
chain: T1 sequence (Q39224 1-358)
Km (purified protein): 100 µM
